Experimental data taken from patent US20240336923A1, “DNAZYMES TARGETING CELL WALL SYNTHESIS ENZYMES AND USES THEREOF” (priority 2021, published 2024).
{CholTEG} = cholesterol-triethylene glycol

Assays:
Format in all cases: cell-based
[1] = test system: Pseudomonas aeruginosa (MDR-PA, ATCC® BAA-3105™) biofilm; assay: Biofilm formation assays (crystal violet and CFU); conditions: TSB, 96 wells, DNAzyme 2.5 μM, 16 hours; for biofilm formation (crystal violet): FIG. 4A; for viable cells within the biofilm (CFU): FIG. 4B
Procedure: FIGS. 4A-B are graphs showing reduction in bacterial density (FIG. 4A) or colony-forming units (FIG. 4B) (vertical axis) in biofilms grown either with or without the indicated DNAzymes (2.5 μM) in 96 wells with tryptic soy broth (TSB) for 16 hours, after which non-adhered cells were removed, and biofilms were washed and stained with 0.1% crystal violet (FIG. 4A) or replating (FIG. 4B). Average and standard mean are depicted by horizontal bars and brackets. Scr is a control scramble DNAzyme (Scr nucleotide sequence is 5′-[…]/3CholTEG/; SEQ ID NO: 44). NT is No Treatment.
Biofilm assays. Bacterial strains were streaked from frozen LB+glycerol stocks onto LB agar plates and incubated for 24 h at 37° C. Single colonies were grown overnight at 37° C. in 3 ml of LB. Cultures were diluted 1:100 in TSB in a 96-well plate, and DNAzymes were added to a final concentration of 2.5 μM. Cultures were incubated at 37° C. without shaking for 16 hours. Non-adherent cells were removed, and biofilms were washed with PBS and either stained with crystal violet (0.1%), or biofilm cells were extracted using mild sonication (2-4 pulses of 5 seconds, amplitude 30%) for CFU determination. CFU was measured using serial dilutions of the bacterial suspensions and spots were plated on LB plates. CFU was determined as above.
To measure the ability of DNAzymes that target a transcript encoding a cell wall biosynthesis enzyme, to affect biofilm formation, bacteria were grown in TSB on plates, under conditions that favor biofilm formation. Representative DNAzymes tested included murG-162, murG-207, and murG-366.

[2] = test system: Pseudomonas aeruginosa (MDR-PA, ATCC® BAA-3105™) biofilm; assay: Scanning electron microscopy of biofilms grown with DNAzymes; conditions: stainless steel mesh, TSB, DNAzyme 1.25 μM twice, 48 hours; FIG. 5C
Procedure: FIGS. 5A-5C: Biofilm macrostructure and morphology of single bacterial cells are affected by DNAzymes targeting murG. Biofilms were grown on top of dense stainless steel mesh in TSB in 12 well plates with or without indicated DNAzymes (1.25 μM). 24 hours afterwards, an additional dose of DNAzymes was added to treated samples. Following 48 hours of overall inoculation, biofilms were fixated and dehydrated. The mesh with associated biofilms was imaged with scanning electron microscopy (SEM). The results are of a representative field of 3 independent repeats. (FIG. 5A). NT, scr, and murG162 as above) (FIG. 5B) Enlargements of representative zones, enabling detection of single-cell morphologies. (FIG. 5C) Overall measurements of the maximal thickness of dehydrated biofilms. (NT, scr, and murG162 as above)
To determine the effects of the representative DNAzymes on macro- and microstructure of treated biofilms, 3D structures of treated and untreated biofilms were examined using scanning electron microscopy (SEM).
To study the effects of DNAzyme treatment on biofilm structure, 3D topographies of the biofilms were generated to compare multiple areas of the biofilm. The biofilms were dehydrated, resulting in a uniform loss of volume percentage.

[3] = test system: Pseudomonas aeruginosa (MDR-PA, ATCC® BAA-3105™) pre-established biofilm; assay: DNAzyme treatment of pre-established biofilms without or with meropenem (CFU, SEM); conditions: DNAzyme 2.5 μM, 8 hours; for effect on meropenem activity against pre-established biofilms: PBS + 10 μM meropenem, FIG. 6B; for reduction of biofilm biomasses: mature 24 h biofilms, without or with meropenem, FIGS. 6A-6B
Procedure: FIGS. 6A-6C: DNAzymes can reduce viability and increase antibiotic sensitivity of cells from pre-established biofilms. Biofilms were grown in TSB in 12 well plates. 24 hours later, the medium was replaced with PBS (FIG. 6A) or with PBS+10 μM meropenem (FIG. 6B) in the presence or absence of the indicated DNAzymes, murG-162 or SCR (scramble control), […]. Following 8 hours, the adherent remaining cells were extracted, and the number of CFU was determined. (FIG. 6C) Biofilms were grown as described for FIG. 6B. The mesh with associated biofilms was imaged with SEM.
The effect of DNAzymes targeting murG on pre-established biofilms was studied by comparing the application of PBS, scrambled DNAzyme control (SCR), or indicated DNAzymes (162-murG, 207-murG, and 366-murG) on mature biofilms without or with the beta-lactam meropenem (FIGS. 6A-6B, respectively).
These findings were confirmed by SEM. Biofilms treated with sub-lethal concentrations of meropenem with control SCR DNAzyme were […] and had more texture. […] FIG. 6C presents an example of these findings, wherein SCR DNAzyme treated samples were compared to biofilms treated with murG162+meropenem.

[4] = test system: Pseudomonas aeruginosa strain ATCC® BAA-3105™; assay: Intracellular DNAzyme quantification in bacteria grown in media (qPCR / flow cytometry); conditions: LB + 32 μg/ml meropenem, 1.25 μM DNAzyme, 4 hours
Procedure: FIGS. 2A-2D. Uptake of fluorescent DNAzyme in media mimicking in vivo conditions, in the presence of subtoxic concentrations of meropenem as judged by flow cytometry. […] FIG. 2B is a graph showing the copy number of fluorescent murG-207 DNAzymes (Dz) per bacterium, as measured by flow cytometry. FIG. 2C is a graph showing uptake of fluorescent murG-207 DNAzyme in bacterial cells in a biofilm. Bacteria were grown under conditions favoring biofilm formation in TSB for 24 hours. Biofilm cells were separated from non-adhered cells, incubated with fluorescent murG-207 DNAzyme for 2 hours, and analyzed by flow cytometry. FIG. 2D is a graph showing uptake of DNAzymes in bacterial colonizing lung tissue samples (mouse lungs from naïve healthy mice). MDR-PA were grown with lung samples in DMEM with meropenem for 24 hours. […] In the histograms shown in FIGS. 2A, 2C, and 2D, arrows indicate which lines represent the basal fluorescence levels of the bacteria, and fluorescence of murG-207 DNAzyme with 3′cholesterol-TEG modification.
Flow cytometry. […] Data was analyzed using Kaluza Analysis 2.1 software using a C6 import module.
Intracellular DNAzyme quantification from bacterial cells. […] For intracellular extraction of the DNAzymes, cells were incubated for 10 minutes at 95° C., and supernatants were collected for quantification of intracellular DNAzymes. […]

Row | Substance | biofilm formation (crystal violet) [1] | viable cells within the biofilm (CFU) [1] | occurrence of areas thicker than 10 μm in dehydrated biofilms [2] | effect on meropenem activity against pre-established biofilms [3] | reduction of biofilm biomasses [3] [log] | average copy number of DNAzymes per cell [4]
1 | 5′-ACCACAATACCGAGATCGGTCGTGTCGGCATGA/3CholTEG/ (DNA, 3' {CholTEG}, backbone and methylation of C not given here) [Scr, control scramble DNAzyme, reference compound] | did not show inhibition of biofilm formation | did not show inhibition of biofilm formation or a reduction of viable cells | composed of areas thicker than 10 μm, areas of about 10 μm, and significantly thinner areas |  |  | 
2 | 5′-GATCAGGTG ggctagctacaacga AACGGCAGG-Chol-TEG-3′ (DNA GATCAGGTGGGCTAGCTACAACGAAACGGCAGG; DNA, 3' {CholTEG}, backbone and methylation of C not given here) [murG-162] | biofilm inhibition | significant reduction of viable cells | significantly reduced | potentiated the effect of meropenem | ~1 | 
3 | 5′-CTTGACCAG ggctagctacaacga GACTTCAGG-Chol-TEG-3′ (DNA CTTGACCAGGGCTAGCTACAACGAGACTTCAGG; DNA, 3' {CholTEG}, backbone and methylation of C not given here) [murG-207, 10-23 DNAzyme targeting murG RNA transcript, cleavage site nt 207, 3′ cholesterol-TEG] | biofilm inhibition | significant reduction of viable cells |  | potentiated the effect of meropenem | ~1 | over 10,000 DNAzymes per cell
4 | 5′-GGCGTTCTG ggctagctacaacga TCGTGGATC-Chol-TEG-3′ (DNA GGCGTTCTGGGCTAGCTACAACGATCGTGGATC; DNA, 3' {CholTEG}, backbone and methylation of C not given here) [murG-366, 10-23 DNAzyme targeting murG RNA transcript, cleavage site nt 366, 3′ cholesterol-TEG] | biofilm inhibition | significant reduction of viable cells |  | potentiated the effect of meropenem | ~1 | 
